# Test results: patent publication US20250170098A1, “MOLECULAR JACKHAMMER FOR MECHANICAL DESTRUCTION OF CELLULAR STRUCTURE” (William Marsh Rice University, priority 2022, published 2025)
# Legend:
# [1] = tested on: human melanoma A375 cells; assay: Cell permeabilization to DAPI, flow cytometry analysis; type: cell-based
# Description: The activity of plasmon-driven MJHs to open cell membranes by VDA upon NIR light-activation was evaluated in human melanoma A375 cells. When the cell membranes were open by VDA, DAPI enters immediately into the cells and stain the nucleus, and flow cytometry analysis was used to quantify the percentage of DAPI positive cells at variable concentrations of MJH. The flow cytometry analysis is conducted immediately after the cells were treated with 730 nm LED light at 80 mW/cm^2 for 10 min. Typically, it took ˜30 s to start cell counting and observe that DAPI already had entered into the cell membrane-compromised cells but not in the controls without VDA action. This is indicative of a rapid necrotic cell death and cell membrane permeabilization to DAPI by VDA action. The effective concentration needed to permeabilize cells by 50% (VDA IC50) was estimated for each molecule.
# The flow cytometry data was analyzed using FlowJo software version 10.5.3. Then, a wide polygonal gate was drawn as shown in FIG. 33A since we were interested in detecting any cell death after treatment, we were not only interested in measuring healthy cell populations. Sometimes, we observed that the death cell population upon treatment shifted outside the gate if a narrow gate was used. Then, the singlets were selected and the DAPI fluorescence intensity was plotted versus the SSC-A and the gate for DAPI positive cells was drawn as shown in FIG. 33C and the analysis was applied to all samples in the group. In FIG. 33D, a DAPI positive population is observed in the same analysis group. This analysis was applied to calculate the percentage of DAPI positive cells.
# Cell Permeabilization and flow cytometry analysis. A375 cells were cultured as described before. One day before the treatment, cells were inoculated at 5 million cells per dish (10 cm polystyrene tissue culture dish). The cells were harvested using 0.05% trypsin-EDTA (Gibco, 25-300-054), then the cells were counted and were adjusted to a cell density of 2×10^5 cells/mL in DMEM media with L-glutamine, 4.5 g/L glucose, and sodium pyruvate (Corning Inc. 10013CV) and supplemented with 10% FBS (Corning, 35010CV), 2×MEM vitamin solution (Gibco, 11120052), 1×MEM non-essential amino acid solution (Gibco, 11140050) and penicillin/streptomycin. 1 mL of this cell suspension containing 2×10^5 cells was used in each treatment. In a 1.5 mL Eppendorf tube, […] containing 2 mM Cy7.5-amine (or other cyanine molecule or other concentration) in DMSO (Fisher, 99.7%) was placed in the bottom of the tube, then 1 mL of the cell suspension was added into the tube to get final concentration of 2 μM of Cy7.5-amine containing 0.1% DMSO and 2×10^5 cells. The mixture was then incubated at 37° C. and 5% CO2 for 30 min. Then, 1 mM DAPI was added into the cell suspension. Then, the cells suspension was transferred to a […] tissue culture dish and immediately the cells were treated under the light beam of NIR light of 730 nm at 80 mW/cm^2 (or adjusted powers down to 20 mW/cm^2) for 10 min (or adjusted illumination times down to 30 s) using LED light source (PRIZMATIX, UHP-F-730, Israel) which covered the entire dish. While the cells were treated, the dish was placed on top of an aluminum block painted black, so that the excess NR light and that was not reflected back into the cell suspension while the aluminum block actED as a heat-sink, maintaining a constant temperature in the dish during the irradiation. The instrument for flow cytometry analysis (SONY, MA900 Multi-Application Cell Sorter) was already set up and calibrated by the time the light treatment was finished. Therefore, as soon as the 10-min light treatment was completed, the cell suspension was rapidly transferred from the 35 mm dish to a flow cytometry tube and the cells were analyzed for DAPI permeabilization and Cy7.5-amine binding. It took ˜30 s to load the sample and to start the analysis. […]
# [2] = tested on: A375 cells; assay: Clonogenic assay; type: cell-based, human
# Description: The clonogenic assay was conducted to confirm that cancer cells treated by plasmon-driven MJH are indeed death upon NIR-light activation (FIG. 18). Three molecules were analyzed: the most VDA active BL-204, medium active BL-141-2 and low active Cy7-amine. […] This was accomplished by incubating the MJH molecules with the A375 cells for 50 min and immediately activate the plasmon-driven MJH using 730 nm NIR-light at 80 mW/cm^2 for 10 min. This is considered a short contact time between the MJH and the A375 cells.
# Clonogenic assay. A375 cells were seeded in 35 mm cell culture dishes at predetermined densities to allow for an approximately equal number of resultant colonies. The next day, cells were treated with Cy7.5-amine at variable concentration and with or without 730 nm light at 80 mWcm^−2 for 10 min. The cells were incubated with Cy7.5-amine for 50 min before the illumination, the media was replaced with fresh media after the illumination and cells were cultured for 6 days to allow for colony formation. Cells were then washed once with PBS and fixed-stained in a 0.5% (w/v) crystal violet in methanol/water solution (1:1) during 10 min. The excess of crystal violet was washed off with water, the plates were dried at room temperature and then the colonies were counted using ImageJ software version 1.52a, and the survival fraction was determined. All treatments were in triplicate.
smiles,measurement,setting,value
CN1/C(=C\C=C2C=C(/C=C/C3=[N+](CCCCCC(=O)NCCCCCCN)c4ccc5ccccc5c4C3(C)C)CCC\2)C(C)(C)c2c1ccc1ccccc21 [Cy7.5-amine],"permeabilization to DAPI staining, percentage of cells","[1]; 1 μM, 730 nm LED at 80 mW/cm^2 for 10 min",99.6%
same,binding to cells upon addition of acetic acid,"[1]; 2 μM, acetic acid 0 mM-10 mM",not able to bind efficiently to lipid membranes
same,"cells eradicated, clonogenic assay","[2]; 0.5 μM, 10 min 730 nm light at 80 mWcm^−2",100%
same,"eradication of A375 cells, clonogenic assay (in words)",[2]; 1 μM + light (80 mWcm^−2 of 730 nm for 10 min),complete eradication
